According to PMC7918738, “Microtubule Destabilizing Sulfonamides as an Alternative to Taxane-Based Chemotherapy” (International Journal of Molecular Sciences, 2021):
≈ marks a conversion by molar mass, not a printed value.

Legend:
[1] = tested on: HeLa (cervix epithelioid carcinoma); assay: Antiproliferative activity against HeLa (XTT colorimetric method); type: cell-based; conditions: Homo sapiens, 72 h treatment
Method: The in vitro antiproliferative activity of MDS at 1 µM after 72 h treatments was evaluated by a colorimetric method against the human tumor cell lines HeLa (cervix epithelioid carcinoma) and MCF7 (breast adenocarcinoma). Compounds showing more than 40% inhibition at 1 µM in at least three independent assays were evaluated in a range of concentrations between 0.1 nM and 10 µM for the determination of half-maximal inhibitory concentrations (IC50) (Table 1). Paclitaxel, CA-4, and ABT-751 were used as references.
(§1) MCF7 (human breast carcinoma), SKOV-3 (human ovarian carcinoma), OVCAR-3 (human ovarian carcinoma), OVCAR-8 (human ovarian carcinoma), and HeLa (human cervical carcinoma) cell lines were cultured in Dulbecco’s Modified Eagle’s Medium (DMEM) (Gibco, Thermo Fischer Scientific) containing 10% (v/v) heat-inactivated fetal bovine serum (HIFBS) (Lonza-Cambrex, Karlskoga, Sweden), 2 mM L-glutamine (Lonza-Cambrex, Karlskoga, Sweden), 100 μg/mL streptomycin, and 100 IU/mL penicillin (Lonza-Cambrex) at 37 °C in humidified 95% air and 5% CO2. HT-29 (human colon carcinoma), IGROV-1 (human ovarian carcinoma), and A2780 (human ovarian carcinoma) cell lines were cultured in RPMI 1640 medium (Gibco, Thermo Fischer Scientific) supplemented with 10% HIFBS, 100 μg/mL streptomycin, and 100 IU/mL penicillin at 37 °C in humidified 95% air and 5% CO2 atmosphere. The presence of mycoplasma was routinely checked with MycoAlert kit (Lonza-Cambrex) and only mycoplasma-free cells were used in the experiments. Ovarian tumor cell lines were originally acquired from Dr Atanasio Pandiella from Centro de Investigación del Cáncer (CIC), Salamanca, Spain. HeLa, HT-29 and MCF7 tumor cell lines were provided by Dr Faustino Mollinedo from Centro de Investigaciones Biológicas Margarita Salas, Madrid, Spain.
MCF7, HeLa, and HT-29 cell proliferation, when treated with the corresponding compounds, were determined using the XTT (sodium 3’-[1(phenylaminocarbonyl)-3,4-tetrazolium]-bis(4-methoxy-6-nitro)-benzenesulfonic acid hydrate) cell proliferation kit (Roche Molecular Biochemicals, Mannheim, Germany). A freshly prepared mixture of XTT labeling reagent with 0.02% (v/v) PMS (N-methyl-dibenzopyrazine methyl sulfate) electron coupling reagent was added to cells (50 µL/well in 96-well plates, total volume of 160 µL/well). Cells were incubated under standard culture conditions for 4 h (MCF7 and HeLa) or 6 h (HT-29). The absorbance of the formazan product generated was measured at 450 nm using a multi-well plate reader. SKOV-3, OVCAR-3, OVCAR-8, IGROV-1, A-2780 cell proliferation, when treated with the corresponding compound, were determined using MTT (3-(4,5-dimethylthiazol-2-yl)-2,5-diphenyl-2H-tetrazolium bromide) (Sigma-Aldrich, St. Louis, MO, USA). MTT in Phosphate Buffer Saline (PBS) (5 mg/ml) was added to cells (110 µL/well in 24-well plates, total volume of 1110 µL/well). After 1 hour of incubation, the medium was aspirated, and formazan violet crystals were dissolved in dimethyl sulfoxide (DMSO) (500 µL/well). Absorbance was measured at 570 nm in a plate reader (Ultra Evolution, Tecan, Männedorf, Suiza). To determine cell viability, cells in exponential growth phase were seeded (100 µL/well in 96-well plates and 1000 µL/well in 24-well plates) with appropriate cell line concentration (1.5·10^4 cells/mL for MCF7 and HeLa, 3·10^4 cells/mL for HT-29, and 1·10^4 cells/mL for SKOV-3, OVCAR-3, OVCAR-8, IGROV-1, and A-2780) in complete RPMI 1640 or DMEM medium at 37°C and 5% CO2 atmosphere. After 24 h incubation, to allow cells to attach to the plates, all compounds were added at 1 µM concentration and the effect on the proliferation was evaluated 72 h post-treatment. Compounds showing antiproliferative effects at tested concentration were selected for IC50 calculation (50% inhibitory concentration with respect to the untreated controls) from 10^−5 to 10^−10 M concentration. Non-linear curves fitting the experimental data were carried out for each compound. […]

[2] = tested on: HT-29 (colon adenocarcinoma); assay: Antiproliferative activity against CA-4-resistant HT-29 with or without verapamil (sensitivity to MDR pumps, XTT); type: cell-based, human; conditions: for IC50: Homo sapiens, HT-29, 72 h, XTT, without verapamil, read-out: Antiproliferative Activity IC50 HT-29; for Difference between pairs of HT-29 IC50 values in the presence or absence of verapamil: 10 µM verapamil, up to two-fold change counted as not significant
Description: Detecting changes in drug potency when inhibiting MDR-mediated efflux reflect that these transporters reduce the intracellular drug concentration. HT-29 has been reported to express moderate levels of MDR1, accounting for a resistant phenotype. A comparison of the antiproliferative IC50 values of each MDS in the presence or absence of verapamil provides an estimate of the susceptibility of each compound to efflux pumps.
as §1
MCF7, HeLa, and HT-29 cell proliferation, when treated with the corresponding compounds, were determined using the XTT (sodium 3’-[1(phenylaminocarbonyl)-3,4-tetrazolium]-bis(4-methoxy-6-nitro)-benzenesulfonic acid hydrate) cell proliferation kit (Roche Molecular Biochemicals, Mannheim, Germany). A freshly prepared mixture of XTT labeling reagent with 0.02% (v/v) PMS (N-methyl-dibenzopyrazine methyl sulfate) electron coupling reagent was added to cells (50 µL/well in 96-well plates, total volume of 160 µL/well). Cells were incubated under standard culture conditions for 4 h (MCF7 and HeLa) or 6 h (HT-29). The absorbance of the formazan product generated was measured at 450 nm using a multi-well plate reader. SKOV-3, OVCAR-3, OVCAR-8, IGROV-1, A-2780 cell proliferation, when treated with the corresponding compound, were determined using MTT (3-(4,5-dimethylthiazol-2-yl)-2,5-diphenyl-2H-tetrazolium bromide) (Sigma-Aldrich, St. Louis, MO, USA). MTT in Phosphate Buffer Saline (PBS) (5 mg/ml) was added to cells (110 µL/well in 24-well plates, total volume of 1110 µL/well). After 1 hour of incubation, the medium was aspirated, and formazan violet crystals were dissolved in dimethyl sulfoxide (DMSO) (500 µL/well). Absorbance was measured at 570 nm in a plate reader (Ultra Evolution, Tecan, Männedorf, Suiza). To determine cell viability, cells in exponential growth phase were seeded (100 µL/well in 96-well plates and 1000 µL/well in 24-well plates) with appropriate cell line concentration (1.5·10^4 cells/mL for MCF7 and HeLa, 3·10^4 cells/mL for HT-29, and 1·10^4 cells/mL for SKOV-3, OVCAR-3, OVCAR-8, IGROV-1, and A-2780) in complete RPMI 1640 or DMEM medium at 37°C and 5% CO2 atmosphere. After 24 h incubation, to allow cells to attach to the plates, all compounds were added at 1 µM concentration and the effect on the proliferation was evaluated 72 h post-treatment. […] Non-linear curves fitting the experimental data were carried out for each compound. Compounds were dissolved in DMSO and the final solvent concentrations never exceeded 0.5% (v/v). The control wells included […] with 0.5% (v/v) DMSO and the positive control. 10 µM verapamil was included as a control for the HT-29 cell line.

[3] = Aqueous solubility, saturation shake-flask method, UV absorbance; conditions: phosphate buffer, pH 7, aqueous buffer, thermodynamic from solid

SMILES | melting point | IC50 [1] | IC50 [2] | solubility at 48 h [3] | Difference between pairs of HT-29 IC50 values in the presence or absence of verapamil [2]
COc1ccc(S(=O)(=O)Nc2cc(OC)c(OC)c(OC)c2)cc1 [Compound 1a] | 115 to 116 °C | 240 nM | 897 nM | 83 µg/mL (≈ 235 µM) | –
COc1ccc(S(=O)(=O)N(C)c2cc(OC)c(OC)c(OC)c2)cc1 [Compound 2a] | 123 to 124 °C | 71 nM | 143 nM | 27 µg/mL (≈ 73.5 µM) | –
CCN(c1cc(OC)c(OC)c(OC)c1)S(=O)(=O)c1ccc(OC)cc1 [Compound 3] | 140 to 143 °C | 99 nM | 913 nM | 30 µg/mL (≈ 78.6 µM) | –
COc1ccc(S(=O)(=O)N(C(C)=O)c2cc(OC)c(OC)c(OC)c2)cc1 [Compound 5] | 190 to 195 °C | 287 nM | 747 nM | 38 µg/mL (≈ 96.1 µM) | –
CCOC(=O)CN(c1cc(OC)c(OC)c(OC)c1)S(=O)(=O)c1ccc(OC)cc1 [Compound 7] | 123 to 127 °C | 217 nM | 237 nM | – | –
COc1ccc(S(=O)(=O)N(CC(=O)O)c2cc(OC)c(OC)c(OC)c2)cc1 [Compound 8] | 151 to 158 °C | > 1000 nM | > 1000 nM | – | –
COc1ccc(S(=O)(=O)N(C)c2cc(OC)c(OC)c(OC)c2NC(C)=O)cc1 [Compound 16] | 205 to 210 °C | > 1000 nM | > 1000 nM | – | –
COc1cc(NS(=O)(=O)c2ccc([N+](=O)[O-])cc2)cc(OC)c1OC [Compound 25] | 138 to 140 °C | > 1000 nM | > 1000 nM | – | –
COc1cc(NS(=O)(=O)c2ccc(N)cc2)cc(OC)c1OC [Compound 26] | 177 to 179 °C | > 1000 nM | > 1000 nM | 28 µg/mL (≈ 82.7 µM) | –
COc1cc(N(C)S(=O)(=O)c2ccc(N(C)C)cc2)cc(OC)c1OC [Compound 29a] | 134 to 140 °C | 63 nM | 103 nM | 7 µg/mL (≈ 18.4 µM) | –

More lines, now with the values ahead:

melting point | IC50 [1] | IC50 [2] | solubility at 48 h [3] | Difference between pairs of HT-29 IC50 values in the presence or absence of verapamil [2] | SMILES
– | 66 nM | 460 nM | 6 µg/mL (≈ 15.2 µM) | – | CCN(c1cc(OC)c(OC)c(OC)c1)S(=O)(=O)c1ccc(N(C)C)cc1 [Compound 30]
– | 183 nM | 140 nM | 18 µg/mL (≈ 44.1 µM) | – | COc1cc(N(C(C)=O)S(=O)(=O)c2ccc(N(C)C)cc2)cc(OC)c1OC [Compound 31]
– | 55 nM | 123 nM | 8 µg/mL (≈ 19.7 µM) | – | COc1cc(N(CC#N)S(=O)(=O)c2ccc(N(C)C)cc2)cc(OC)c1OC [Compound 32]
168 to 170 °C | > 1000 nM | > 1000 nM | – | – | COc1cc(N(CC(=O)O)S(=O)(=O)c2ccc(N(C)C)cc2)cc(OC)c1OC [Compound 34]
– | > 1000 nM | > 1000 nM | 27 µg/mL (≈ 73.7 µM) | – | COc1cc(NS(=O)(=O)c2ccc(NC=O)cc2)cc(OC)c1OC [Compound 36]
200 to 206 °C | 607 nM | 807 nM | 43 µg/mL (≈ 122 µM) | – | CNc1ccc(S(=O)(=O)Nc2cc(OC)c(OC)c(OC)c2)cc1 [Compound 37]
– | 44 nM | 59 nM | 16 µg/mL (≈ 43.7 µM) | no significant differences | CNc1ccc(S(=O)(=O)N(C)c2cc(OC)c(OC)c(OC)c2)cc1 [Compound 38]
– | 260 nM | 277 nM | 89 µg/mL (≈ 242 µM) | – | COc1ccc(S(=O)(=O)Nc2cc(OC)c(OC)c(OC)c2)cc1N [Compound 41]
– | 23 nM | 81 nM | 108 µg/mL (≈ 282 µM) | no significant differences | COc1ccc(S(=O)(=O)N(C)c2cc(OC)c(OC)c(OC)c2)cc1N [Compound 42]
– | 38 nM | 63 nM | 58 µg/mL (≈ 146 µM) | – | CCN(c1cc(OC)c(OC)c(OC)c1)S(=O)(=O)c1ccc(OC)c(N)c1 [Compound 43]
– | 25 nM | 300 nM | 14 µg/mL (≈ 30.5 µM) | no significant differences | COc1ccc(S(=O)(=O)N(Cc2ccccc2)c2cc(OC)c(OC)c(OC)c2)cc1N [Compound 45]
